The target of one experiment is hROMK (hKir1.1) (Homo sapiens (Human), UniProt P48048). As to the kind of experiment: Thallium Flux Assay (ROMK channel functional thallium flux, FLIPR-Tetra). To be noted: HEK293 cells stably expressing hROMK (hKir1.1). Format: cell-based. The protocol: HEK293 cells stably expressing hROMK (hKir1.1) were grown at 37° C. in a 10% CO2 humidified incubator in complete growth media: Dulbecco's Modified Eagle Medium supplemented with non-essential amino acids, Penicillin/Streptomycin/Glutamine, G418 and FBS. At >80% confluency, aspirate the media from the flask and rinse with 10 mL Calcium/Magnesium-free PBS. Add 5 mL of 1× trypsin (prepared in Ca/Mg Free PBS) to T-225 flask and return flask to 37° C./CO2 incubator for 2-3 minutes. To dislodge the cell, gently bang the side of the flask with your hand. Triturate the cells completely and then transfer the cells to 25 mL complete media. Centrifuge at 1,500 rpm for 6 min followed by resuspension in complete growth media and determine cell concentration. For typical re-seeding, 4E6 cells/T-225 flask will attain>80% confluency in 4 days. Under ideal growth conditions and appropriate tissue culture practices, this cell line is stable for 40-45 passages.
• FluxOR™ Reagent (Component A) • FluxOR™ Assay Buffer (Component B)—10× Concentrate • PowerLoad™ Concentrate (Component C)—100× Concentrate • Probenecid (Component D)—Lyophilized sample is kept at −20° C. Water soluble, 100× after solubilization in 1 mL water. Store at 4° C. • FluxOR™ Chloride-free Buffer (Component E)—5× Concentrate • Potassium sulfate (K2SO4) Concentrate (Component F)—125 mM in water. Store at 4° C. • Thallium sulfate (Tl2SO4) Concentrate (Component G)—50 mM in water. Store at 4° C. • DMSO (dimethyl sulfoxide, Component H)—1 mL (100%) Reagent Preparation: FluxOR Working Solutions • 1000× FluxOR™ Reagent: Reconstitute a vial of component A in 100 μl DMSO; Mix well; Store 10 μl aliquots at −20° C. • 1× FluxOR™ Assay Buffer: Dilute Component B 10-fold with water; Adjust pH to 7.4 with Hepes/NaOH; Filter and store at 4° C. • Probenecid/Assay Buffer: 100 mL of 1× FluxOR™ Assay Buffer; 1 mL of reconstituted component D; Store at 4° C. • Loading Buffer (per microplate): 10 μl 1000× FluxOR™ Reagent; 100 μl component C; 10 mL Probenecid/Assay Buffer • Compound Buffer (per microplate): 20 mL Probenecid/Assay Buffer; 0.3 mM ouabain (10 mM ouabain in water can be stored in amber bottle/aluminum foil at room temperature); Test compound • 1× FluxOR™ Chloride-Free Buffer: Prepare 1× working solution in water. Can be stored at room temperature • Stimulant Buffer (prepared at 5× final concentration in 1× FluxOR™ Chloride-Free Buffer): 7.5 mM Thallium sulfate and 0.75 mM Potassium sulfate (to give a final assay concentration of 3 mM Thallium/0.3 mM Potassium). Store at 4° C. when not in use. If kept sterile, this solution is good for months. Assay Protocol—
The ROMK channel functional thallium flux assay is performed in 384 wells, using the FLIPR-Tetra instrument. HEK-hKir1.1 cells are seeded in Poly-D-Lysine microplates and kept in a 37° C.-10% CO2 incubator overnight. On the day of the experiment, the growth media is replaced with the FluxOR™ reagent loading buffer and incubated, protected from light, at ambient temperature (23-25° C.) for 90 min. The loading buffer is replaced with assay buffer±test compound followed by 30 min incubation at ambient temperature, where the Thallium/Potassium stimulant is added to the microplate.
• 1. Seed HEK-hKir1.1 cells (50 μl at 20,000 cells/well) in 384-well PDL coated Microplates • 2. Allow cells to adhere overnight in humidified 37° C./10% CO2 incubator • 3. Completely remove cell growth media from microplate and replace with 25 μl loading buffer • 4. Incubate Microplate at room temperature, protected form light, for 90 min • 5. Remove loading buffer and replace with 25 μl 1× Assay Buffer±test compound. • 6. Incubate microplate at room temperature, protected form light, for 30 min • 7. At FLIPR-Tetra 384: Add stimulant (Thallium/Potassium) solution to microplate and monitor fluorescence. Excitation=400 nm, Emission=460 & 580 nm. Collect data for ˜10 min. Data Calculation—

For the next experiment, the target named is Kir1.1 (ROMK1) (Homo sapiens (Human), UniProt P48048). As to the kind of experiment: Electrophysiology Assay (whole cell voltage clamp, IonWorks Quattro). Format: cell-based. The conditions noted are these: Chinese hamster ovary cells stably expressing Kir1.1; block during voltage step to 0 mV. The protocol:
Block of Kir1.1 (ROMK1) currents was examined by whole cell voltage clamp (Hamill et. al. […] Prior to an experiment, Kir1.1 expression was induced by overnight incubation with 1 mM sodium butyrate. […] After centrifugation, the cell pellet was resuspended in approximately 4.0 mL of bath solution and placed in the IonWorks instrument. The intracellular solution consisted of (in mM): 80 K gluconate, 40 KCl, 20 KF, 3.2 MgCl2, 3 EGTA, 5 Hepes, pH 7.4. […] Amphotericin B (Sigma A-4888) was prepared as a 40 mg/mL solution in DMSO. Voltage protocols and current recordings were performed using the IonWorks HT software/hardware system. […] No correction for liquid junction potentials was used. The test pulse, consisting of a 100 ms step to 0 mV from a holding potential of −70 mV, followed by a 100 ms voltage ramp from −70 mV to +70 mV, was applied before and after a 6 min compound incubation period. Test compounds were prepared by diluting DMSO stock solutions into the bath solution at 3× the final concentration and placed in the instrument in 96-well polypropylene plates. Current amplitudes were measured using the IonWorks software. To assess compound potency, the fractional block during the voltage step to 0 mV was calculated in Microsoft Excel (Microsoft, Redmond, Calif.), and dose-response curves were fitted with Igor Pro 4.0 (WaveMetrics, Lake Oswego, Oreg.).
In general terms: The patch-clamp technique gives a direct electrical read-out from membranes.

One may read the IC50 as the point on the concentration scale where inhibition reaches its midpoint. Higher therefore signals weaker potency in that assay.

hROMK (hKir1.1), sequence (P48048 whole entry): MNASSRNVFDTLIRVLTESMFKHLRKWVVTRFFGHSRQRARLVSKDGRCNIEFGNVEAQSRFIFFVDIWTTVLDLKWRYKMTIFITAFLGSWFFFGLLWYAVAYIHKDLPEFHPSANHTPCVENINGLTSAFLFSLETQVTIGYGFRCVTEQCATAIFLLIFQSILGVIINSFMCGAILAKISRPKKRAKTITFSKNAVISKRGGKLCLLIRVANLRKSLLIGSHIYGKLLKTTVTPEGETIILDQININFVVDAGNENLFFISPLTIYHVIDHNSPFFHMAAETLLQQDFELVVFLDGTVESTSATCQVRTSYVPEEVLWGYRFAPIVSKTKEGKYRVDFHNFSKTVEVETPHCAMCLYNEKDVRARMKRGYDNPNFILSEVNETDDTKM
Kir1.1 (ROMK1), sequence (P48048 whole entry): as above

Turning to `Cc1c([C@@H]2CN3CCN(C(=O)C4CCc5nc(-n6cnnn6)ncc54)C[C@@H]3CO2)ccc(F)c1C#N` (single isomer, unassigned) [Example 2C], the IC50 on hROMK (hKir1.1) came out at 120 nM; on Kir1.1 (ROMK1) it was 150 nM. The like results for `Cc1c([C@@H]2CN3CCN(C(=O)C4CCc5nc(-n6cnnn6)ncc54)C[C@@H]3CO2)ccc(F)c1C#N` (single isomer, unassigned) [Example 2D] were, in that order, 130 nM and 100 nM.

For the compound `Cc1c([C@@H]2CN3CCN(C(=O)C4CCc5nc(-n6cnnn6)ncc54)C[C@H]3CO2)ccc(F)c1C#N` (single isomer, unassigned) [Example 2E], the IC50 against hROMK (hKir1.1) came out at 130 nM. This lies in the sub-micromolar range. On the same count and under the same terms, the figure for `Cc1c([C@@H]2CN3CCN(C(=O)C4CCc5nc(-n6cnnn6)ncc54)C[C@H]3CO2)ccc(F)c1C#N` (single isomer, unassigned) [Example 2F] is 390 nM.

As for `Cc1c([C@H]2CN3CCN(C(=O)C4CCc5nc(-n6cnnn6)ncc54)C[C@H]3CO2)ccc(F)c1C#N` (single isomer, unassigned) [Example 2G], the IC50 on hROMK (hKir1.1) amounted to 270 nM; on Kir1.1 (ROMK1), 130 nM. On to `Cc1c([C@H]2CN3CCN(C(=O)C4CCc5nc(-n6cnnn6)ncc54)C[C@H]3CO2)ccc(F)c1C#N` (single isomer, unassigned) [Example 2H], for which the values for the IC50 against hROMK (hKir1.1) and on Kir1.1 (ROMK1) were 140 nM and 100 nM, respectively. The like results for `Cc1c([C@H]2CN3CCN(C(=O)C4CCc5cc(-n6cnnn6)ncc54)C[C@H]3CO2)ccc(F)c1C#N` (single isomer, unassigned) [Example 35] were, in that order, 180 nM and 110 nM. Consider `Cc1c([C@@H]2CN3CCN(C(=O)C4CCc5cc(-n6cnnn6)ncc54)C[C@H]3CN2)ccc(F)c1C#N` (single isomer, unassigned) [Example 96A], for which the figures for the IC50 on hROMK (hKir1.1) and against Kir1.1 (ROMK1) were 200 nM and 100 nM, respectively.

For `Cc1c([C@@H]2CN3CCN(C(=O)C4CCc5cc(-n6cnnn6)ncc54)C[C@H]3CN2)ccc(F)c1C#N` (single isomer, unassigned) [Example 96B], the IC50 against hROMK (hKir1.1) and against Kir1.1 (ROMK1) was > 1000 nM each time.

Turning to `Cc1c(C2CN3CCN(C(=O)[C@H]4CCc5nc(-n6cnnn6)ncc54)C[C@@H]3CO2)ccc(F)c1C#N` (stereo in doubt) [Example 2A, 6-Fluoro-2-methyl-3-[(3S,9aR)-8-{[(5S)-2-(1H-tetrazol-1-yl)-6,7-dihydro-5H-cyclopenta[d]pyrimidin-5-yl]carbonyl}octahydropyrazino[2,1-c][1,4]oxazin-3-yl]benzonitrile], the IC50 on hROMK (hKir1.1) stood at 220 nM; against Kir1.1 (ROMK1) it was 100 nM. `Cc1c([C@H]2CN3CCN(C(=O)[C@@H]4CCc5nc(-n6cnnn6)ncc54)C[C@@H]3CO2)ccc(F)c1C#N` [Example 2B, 6-fluoro-2-methyl-3-[(3S,9aR)-8-{[(5R)-2-(1H-tetrazol-1-yl)-6,7-dihydro-5H-cyclopenta[d]pyrimidin-5-yl]carbonyl}octahydropyrazino[2,1-c][1,4]oxazin-3-yl]benzonitrile]: the figures for the IC50 against hROMK (hKir1.1) and at Kir1.1 (ROMK1) were 350 nM and 100 nM, respectively. The like results for `Cc1c([C@H]2CN3CCN(C(=O)C4CCc5nc(-n6cnnn6)ncc54)C[C@H]3CO2)ccc2c1COC2=O` (some centres unmarked) [Example 3] were, in that order, 250 nM and 530 nM.

On to `Cc1c([C@H]2CN3CCN(C(=O)C4CCc5nc(-n6cnnn6)ccc54)C[C@H]3CO2)ccc(F)c1C#N` (some centres unmarked) [Example 4], for which the IC50 against hROMK (hKir1.1) came to 460 nM; on Kir1.1 (ROMK1), 180 nM. For `Cc1c([C@H]2CN3CCN(C(=O)C4CCc5nc(-n6cnnn6)ccc54)C[C@H]3CO2)ccc(F)c1C#N` (some centres unmarked) [Example 5] the same measures were 170 nM and 100 nM. For `Cc1c([C@@H]2CN3CCN(C(=O)C4CCc5nc(-n6cnnn6)ccc54)C[C@H]3CO2)ccc(F)c1C#N` (some centres unmarked) [Example 6] the same measures were 240 nM and 100 nM. `Cc1c([C@@H]2CN3CCN(C(=O)C4CCc5nc(-n6cnnn6)ccc54)C[C@H]3CO2)ccc(F)c1C#N` (some centres unmarked) [Example 7]: the IC50 against hROMK (hKir1.1) turned out to be 140 nM; against Kir1.1 (ROMK1), 80 nM.

As for `Cc1c([C@H]2CN3CCN(C(=O)C4CCCc5nc(-n6cnnn6)ccc54)C[C@H]3CO2)ccc(F)c1C#N` (some centres unmarked) [Example 8], the IC50 against hROMK (hKir1.1) is 350 nM; against Kir1.1 (ROMK1) it was 240 nM. The like results for `Cc1c([C@H]2CN3CCN(C(=O)C4CCCc5nc(-n6cnnn6)ccc54)C[C@H]3CO2)ccc(F)c1C#N` (some centres unmarked) [Example 9] were, in that order, 610 nM and 190 nM. For `Cc1c([C@@H]2CN3CCN(C(=O)C4CCCc5nc(-n6cnnn6)ccc54)C[C@H]3CO2)ccc(F)c1C#N` (some centres unmarked) [Example 10] the same measures were 410 nM and 180 nM. For `Cc1c([C@@H]2CN3CCN(C(=O)C4CCCc5nc(-n6cnnn6)ccc54)C[C@H]3CO2)ccc(F)c1C#N` (some centres unmarked) [Example 11] the same measures were 360 nM and 240 nM. For `Cc1c([C@@H]2CN3CCN(C(=O)C4CCCc5nc(-n6cnnn6)ccc54)C[C@@H]3CO2)ccc(F)c1C#N` (some centres unmarked) [Example 12], the figures for the IC50 on hROMK (hKir1.1) and at Kir1.1 (ROMK1) were 450 nM and 160 nM, respectively. The like results for `Cc1c([C@H]2CN3CCN(C(=O)C4CCCc5nc(-n6cnnn6)ccc54)C[C@@H]3CO2)ccc(F)c1C#N` (some centres unmarked) [Example 13] were, in that order, 320 nM and 260 nM.

`O=C1OCCc2cc([C@@H]3CN4CCN(C(=O)C5CCCc6nc(-n7cnnn7)ccc65)C[C@H]4CO3)ccc21` (some centres unmarked) [Example 14]: the figures for the IC50 at hROMK (hKir1.1) and at Kir1.1 (ROMK1) were 470 nM and 210 nM, respectively. `Cc1c(C#N)cccc1[C@@H]1CN2CCN(C(=O)C3CCc4nc(-n5cnnn5)ccc43)C[C@H]2CO1` (some centres unmarked) [Example 71] registered an IC50 against Kir1.1 (ROMK1) of 120 nM. That is a sub-micromolar value.

With `Cc1c(C#N)cccc1[C@@H]1CN2CCN(C(=O)C3CCc4cc(-n5cnnn5)ncc43)C[C@@H]2CO1` (some centres unmarked) [Example 94], on hROMK (hKir1.1), inhibition was half-maximal at 290 nM (IC50). `O=C1OCc2c1ccc([C@@H]1CN3CCN(C(=O)C4CCc5nc(-n6cnnn6)ccc54)C[C@H]3CO1)c2C1CC1` (some centres unmarked) [Example 95] returned an IC50 against hROMK (hKir1.1) of 180 nM. This IC50 is about 1.6-fold lower than that of the compound before.

The record behind these values is patent US9062070B2, “Inhibitors of the renal outer medullary potassium channel” (Merck Sharp & Dohme Corp., priority 2011, dated 2015).
